In one assay the target is T1, hCB1 (Homo sapiens, UniProt P21554).
T1 construct: made in house; host or cells: Sf9 insect cells (baculovirus), P2 membranes
T1 sequence (P21554 whole entry): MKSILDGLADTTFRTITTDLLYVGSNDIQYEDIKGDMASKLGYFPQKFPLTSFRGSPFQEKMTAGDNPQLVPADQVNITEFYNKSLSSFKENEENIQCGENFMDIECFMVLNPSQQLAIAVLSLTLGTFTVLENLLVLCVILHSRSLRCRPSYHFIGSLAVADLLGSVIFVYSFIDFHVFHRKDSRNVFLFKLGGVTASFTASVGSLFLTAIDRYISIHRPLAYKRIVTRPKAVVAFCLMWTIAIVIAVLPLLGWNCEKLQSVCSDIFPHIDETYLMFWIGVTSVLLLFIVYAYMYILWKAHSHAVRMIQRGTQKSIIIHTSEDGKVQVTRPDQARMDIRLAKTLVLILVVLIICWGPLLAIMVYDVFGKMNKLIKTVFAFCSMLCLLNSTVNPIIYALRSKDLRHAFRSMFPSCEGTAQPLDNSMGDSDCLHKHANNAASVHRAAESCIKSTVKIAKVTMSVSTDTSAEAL
The assay can be described thus: Agonist-induced GTP binding (GTPγ35S) assay at CB1, Example 8. The class given is biochemical. Conditions: IC50 at CB1, determined as described in Example 8; read-out: IC50. A digest of the protocol:
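Membranes from Sf9 cells co-expressing hCB1 and heterotrimeric G-protein (10 μg protein) in Tris pH 7.4 buffer with 5 μM GDP. Test compounds (10^−10–10^−5 M) competed against 1 nM CP55,940 with […] GTPγ35S, 60 min at room temperature. Filter-bound radioactivity by scintillation, expressed as percent above basal.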
In the case of `Cc1cccc(NC(=O)Nc2ccc(N3CCOCC3)c(Cl)c2)c1` [Compound 318, 1-(3-chloro-4-morpholin-4-ylphenyl)-3-(3-methylphenyl)urea], the half-inhibitory concentration (IC50) was below 2 µM. Still for that read-out and setting: under `Cc1ccc(NC(=O)Nc2ccc(CC#N)cc2)cc1C` [Compound 726, 1-[4-(cyanomethyl)phenyl]-3-(3,4-dimethylphenyl)urea] stands below 2 µM. Same read-out and setting: under `CN(CCc1cccc(NC(=O)Nc2cccc(OC(F)F)c2)c1)S(C)(=O)=O` [Compound 785, N-(2-{3-[({[3-(difluoromethoxy)phenyl]amino}carbonyl)amino]phenyl}ethyl)-N-methylmethane-sulfonamide] stands below 2 µM. Take `COc1cccc(NC(=O)Nc2ccc(C(C)C)cc2)c1` [Compound 521, 1-(4-isopropylphenyl)-3-(3-methoxyphenyl)urea]: the IC50 is below 2 µM. For the molecule `Cc1ccc(NC(=O)Nc2ccc(CCO)cc2)cc1C` [Compound 761, 1-(3,4-dimethylphenyl)-3-[4-(2-hydroxyethyl)phenyl]urea], the IC50 was below 2 µM.

As for `CCOc1cccc(NC(=O)Nc2ccc(CC)cc2)c1` [Compound 385, 1-(3-ethoxyphenyl)-3-(4-ethylphenyl)urea], the IC50 is below 2 µM. The same measure, in the same setting: the figure for `COC(=O)c1cccc(NC(=O)Nc2ccc(C)c(Cl)c2)c1` [Compound 769, methyl 3-({[(3-chloro-4-methylphenyl)amino]carbonyl}amino)benzoate] is below 2 µM.

Take `COc1ccc(NC(=O)Nc2ccc(C(=O)OC(C)C)cc2)cc1` [Compound 598, isopropyl 4-({[(4-methoxyphenyl)amino]carbonyl}amino)benzoate]: the 50% inhibitory concentration (IC50) is below 2 µM.

Regarding `CC(C)OC(=O)c1ccc(NC(=O)Nc2ccc(F)cc2)cc1` [Compound 480, isopropyl 4-({[(4-fluorophenyl)amino]carbonyl}amino)benzoate], the IC50 is below 2 µM. On the same count and under the same terms, the figure for `CCOc1ccc(NC(=O)Nc2cccc(OCC)c2)cc1` [Compound 543, 1-(3-ethoxyphenyl)-3-(4-ethoxyphenyl)urea] is below 2 µM; for `CCc1cccc(NC(=O)Nc2cccc(OC(C)C)c2)c1` [Compound 399, 1-(3-ethylphenyl)-3-(3-isopropoxyphenyl)urea] it is below 2 µM; for `N#CCc1ccc(NC(=O)Nc2cccc(Cl)c2)cc1` [Compound 484, 1-(3-chlorophenyl)-3-[4-(cyanomethyl)phenyl]urea] it is below 2 µM.

The assay is the same for the next values; noted with them: Table I; IC50 at CB1, GTP binding with 1 nM CP55,940; read-out: IC50.
Regarding `CCc1ccc(NC(=O)Nc2ccc(OC(F)F)cc2)cc1` [Compound 5, N-[4-(difluoromethoxy)phenyl]-N′-(4-ethylphenyl)urea], the IC50 is below 2 µM.

Still in this assay, the particulars now being: Table II; IC50 at CB1, GTP binding with 1 nM CP55,940; read-out: IC50.
For `CC(C)c1ccc(NC(=O)Nc2ccc(C#N)cc2)cc1` [Compound 193, N-(4-cyanophenyl)-N′-(4-isopropylphenyl)urea], the IC50 is below 2 µM.

In the case of `O=C(Nc1ccc(OC(F)F)cc1)Nc1ccc2c(c1)OCCO2` [Compound 88, N-[4-(difluoromethoxy)phenyl]-N′-(2,3-dihydro-1,4-benzodioxin-6-yl)urea], the IC50 is below 2 µM. Still for that read-out and setting: under `CCCc1ccc(NC(=O)Nc2cccc(Cl)c2)cc1` [Compound 184, N-(3-chlorophenyl)-N′-(4-propylphenyl)urea] stands below 2 µM. Same read-out and setting: the figure for `CCCOc1ccc(NC(=O)Nc2cccc(CC)c2)cc1` [Compound 243, N-(3-ethylphenyl)-N′-(4-propoxyphenyl)urea] is below 2 µM.

Take `CCOc1ccc(NC(=O)Nc2ccc(CC)cc2)cc1` [Compound 235, N-(4-ethoxyphenyl)-N′-(4-ethylphenyl)urea]: the IC50 is below 2 µM. Same read-out and setting: under `CCCOc1ccc(NC(=O)Nc2cccc(C)c2)cc1` [Compound 159, N-(3-methylphenyl)-N′-(4-propoxyphenyl)urea] stands below 2 µM; under `O=C(Nc1ccc(OC(F)F)cc1)Nc1cccc(-c2nccs2)c1` [Compound 71], below 2 µM; under `O=C(Nc1ccc(OC(F)F)cc1)Nc1cc(OC(F)F)ncn1` [Compound 137, N-[4-(difluoromethoxy)phenyl]-N′-[6-(difluoromethoxy)pyrimidin-4-yl]urea], below 2 µM.

Broadly, the IC50 is the midpoint of a concentration-inhibition curve.
